From publication PMC9576757, “A small molecule inhibitor of the UBE2F-CRL5 axis induces apoptosis and radiosensitization in lung cancer” (Signal Transduction and Targeted Therapy, 2022) come the findings set out here.

Structures are written as SMILES. Numbering of substitutions follows the chain as printed.

For assay [1], the target named is T1, UBE2F (Homo sapiens, UniProt Q969M7, K97A/K99A/R121A).
T1 construct: recombinant, pET-28a with His-SUMO tag cleaved by Ulp1 (un-tagged), expressed in E. coli Rosetta 2(DE3) pLysS
T1 sequence (Q969M7 1-185 K97A/K99A/R121A): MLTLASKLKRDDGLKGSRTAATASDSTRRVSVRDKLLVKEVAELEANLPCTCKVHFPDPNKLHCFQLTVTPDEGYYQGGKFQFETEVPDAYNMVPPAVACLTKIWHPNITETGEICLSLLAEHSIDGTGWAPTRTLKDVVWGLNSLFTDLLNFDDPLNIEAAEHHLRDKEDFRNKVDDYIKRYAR
The assay can be described thus: thermal shift assay with Western blotting. It counts as binding. To be noted: V98 pocket mutant.

Assay [2] concerns the target T2, UBE2F (Homo sapiens, UniProt Q969M7).
T2 construct: recombinant, pET-28a with His-SUMO tag cleaved by Ulp1 (un-tagged), expressed in E. coli Rosetta 2(DE3) pLysS
T2 sequence (Q969M7 1-185): T1 sequence (Q969M7 1-185 K97A/K99A/R121A) with A97K, A99K, A121R
The assay can be described thus: differential scanning fluorimetry, SYPRO orange. It counts as binding. Particulars: tested as mesylate salt; 2 μM UBE2F, 1 °C/min from 25 to 95 °C; maximum of a dose series (printed 'up to').

Assay [3] has as its target T2, UBE2F. In words: E2 NEDD8 thioester assay, iFluor 680-NEDD8, SDS-PAGE fluorescence scan. It counts as biochemical.
In assay [4] the target is T3, UBE2F (Homo sapiens, UniProt Q969M7, F153A/D154A/H165A).
T3 construct: recombinant, pET-28a with His-SUMO tag cleaved by Ulp1 (un-tagged), expressed in E. coli Rosetta 2(DE3) pLysS
T3 sequence (Q969M7 1-185 F153A/D154A/H165A): T1 sequence (Q969M7 1-185 K97A/K99A/R121A) with A97K, A99K, A121R, F153A, D154A, H165A
In words: thermal shift assay with Western blotting. The assay is classed as binding. Particulars: N152 pocket mutant. (In general: In western blotting, separated proteins are transferred to a membrane and probed.)

In general, IC50 refers to the concentration that inhibits the measured activity by half. As for `Cc1ccc(C(=O)N2CCN(c3ccc(NC(=O)/C=C/c4c[nH]c5ncccc45)cc3)CC2)cc1` [iV26-9-10-4, HA-9104], the thermal stabilization result is “V98 mutant was a little more thermo-stable and less stabilized by HA-9104” at UBE2F [1]; “N152 mutant was very thermo-stable and largely resistant to HA-9104-induced stabilization” on UBE2F [4]. Further, the dTm at UBE2F [2] is ~ 4 °C. At UBE2F [3], this compound registered a half-maximal inhibitory concentration (IC50) of around 49 µM.
